In patent US11453666B2, “Autotaxin inhibitory compounds” (Cancer Research Technology Limited, priority 2015, dated 2022) one finds IC50 data, which are given here for 31 compounds.

The experiment addresses human recombinant ATX (Homo sapiens, UniProt Q13822). The experiment can be described thus: Autotaxin (ATX) activity Quanta Red assay. Type of experiment: biochemical. The settings on record: read-out: Activity (ATX activity, Quanta Red assay; IC50). The method in brief: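 Recombinant human ATX reaction stopped after 2 h with Quanta Red stop solution; fluorescence read at […]. Controls with DMSO, with and without ATX; IC50 in duplicate.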
With `C[C@@H]1CN(c2ccc([C@H](C)NC(=O)CCc3nc4cccnc4n3Cc3ccc(OC(F)(F)F)cc3)cc2)CCN1` [Example 174, N-{(S)-1-[4-((R)-3-Methyl-piperazin-1-yl)-phenyl]-ethyl}-3-[3-(4-trifluoromethoxy-benzyl)-3H-imidazo[4,5-b]pyridin-2-yl]-propionamide], the IC50 turned out to be 0.002 µM.
Consider `C[C@H](NC(=O)CCc1nc2cccnc2n1Cc1ccc(OC(F)(F)F)cc1)c1ccc(N[C@H]2CCNC2)cc1` [Example 175, N-{(S)-1-[4-((S)-Pyrrolidin-3-ylamino)-phenyl]-ethyl}-3-[3-(4-trifluoromethoxy-benzyl)-3H-imidazo[4,5-b]pyridin-2-yl]-propionamide], for which the IC50 came out at 0.003 µM.
The value for `C[C@H](NC(=O)CCc1nc2cccnc2n1Cc1ccc(OC(F)(F)F)cc1)c1ccc(N2CCN[C@@H](C)C2)cc1` [Example 176, N-{(S)-1-[4-((S)-3-Methyl-piperazin-1-yl)-phenyl]-ethyl}-3-[3-(4-trifluoromethoxy-benzyl)-3H-imidazo[4,5-b]pyridin-2-yl]-propionamide] was 0.003 µM; that for `C[C@H](NC(=O)CCc1nc2cccnc2n1Cc1ccc(F)c(F)c1)c1ccc(N2CCC(N(C)C)C2)cc1` (stereo partly shown) [Example 177] was 0.003 µM.
With `C[C@H](NC(=O)CCc1nc2cccnc2n1Cc1ccc(F)cc1)c1ccc(N2CCCCCC2)cc1` [Example 178, N-[(S)-1-(4-Azepan-1-yl-phenyl)-ethyl]-3-[3-(4-fluoro-benzyl)-3H-imidazo[4,5-b]pyridin-2-yl]-propionamide], the IC50 is 0.003 µM.
The value for `C[C@H](NC(=O)CCc1nc2cccnc2n1Cc1ccc(F)c(F)c1)c1ccc(N2CCNC(C(F)(F)F)C2)cc1` (stereo partly drawn) [Example 179, 3-[3-(3,4-Difluoro-benzyl)-3H-imidazo[4,5-b]pyridin-2-yl]-N-{(S)-1-[4-(3-trifluoromethyl-piperazin-1-yl)-phenyl]-ethyl}-propionamide] was 0.005 µM.
As for `C[C@H](NC(=O)CCc1nc2cccnc2n1Cc1ccc(F)cc1)c1ccc(N2CCCC2)cc1` [Example 180, 3-[3-(4-Fluoro-benzyl)-3H-imidazo[4,5-b]pyridin-2-yl]-N-[(S)-1-(4-pyrrolidin-1-yl-phenyl)-ethyl]-propionamide], the IC50 was found to be 0.006 µM.
Next, `C[C@H](NC(=O)CCc1nc2cccnc2n1Cc1ccc(F)cc1)c1ccc(N2CCC(CO)CC2)cc1` [Example 181, 3-[3-(4-Fluoro-benzyl)-3H-imidazo[4,5-b]pyridin-2-yl]-N-{(S)-1-[4-(4-hydroxymethyl-piperidin-1-yl)-phenyl]-ethyl}-propionamide]: 0.007 µM; `C[C@H](NC(=O)CCc1nc2cccnc2n1Cc1ccc(F)c(F)c1)c1ccc(N2CCN(C)CC2)cc1` [Example 182]: 0.008 µM; `C[C@H](NC(=O)CCc1nc2cccnc2n1Cc1ccc(F)c(F)c1)c1ccc(N2CCCC2)cc1` [Example 183, 3-[3-(3,4-Difluoro-benzyl)-3H-imidazo[4,5-b]pyridin-2-yl]-N-[(S)-1-(4-pyrrolidin-1-yl-phenyl)-ethyl]-propionamide]: 0.01 µM.
Next, `C[C@H](NC(=O)CCc1nc2cccnc2n1Cc1ccc(F)c(F)c1)c1ccc(N2CCN[C@@H](C)C2)cc1` [Example 184, 3-[3-(3,4-Difluoro-benzyl)-3H-imidazo[4,5-b]pyridin-2-yl]-N-{(S)-1-[4-((S)-3-methyl-piperazin-1-yl)-phenyl]-ethyl}-propionamide]: 0.012 µM.
The value for `C[C@H](NC(=O)CCc1nc2cccnc2n1Cc1ccc(F)cc1)c1ccc(N2CCOCC2)cc1` [Example 185, 3-[3-(4-Fluoro-benzyl)-3H-imidazo[4,5-b]pyridin-2-yl]-N-[(S)-1-(4-morpholin-4-yl-phenyl)-ethyl]-propionamide] was 0.013 µM; that for `C[C@H](NC(=O)CCc1nc2cccnc2n1Cc1ccc(F)cc1)c1ccc(N2CCCCC2)cc1` [Example 186, 3-[3-(4-Fluoro-benzyl)-3H-imidazo[4,5-b]pyridin-2-yl]-N-[(S)-1-(4-piperidin-1-yl-phenyl)-ethyl]-propionamide] was 0.013 µM; that for `C[C@H](NC(=O)CCc1nc2cccnc2n1Cc1ccc(F)c(F)c1)c1ccc(N2CCCCC2)cc1` [Example 187, 3-[3-(3,4-Difluoro-benzyl)-3H-imidazo[4,5-b]pyridin-2-yl]-N-[(S)-1-(4-piperidin-1-yl-phenyl)-ethyl]-propionamide] was 0.015 µM.
On to `C[C@@H]1CN(c2ccc([C@H](C)NC(=O)CCc3nc4cccnc4n3Cc3ccc(F)c(F)c3)cc2)CCN1` [Example 188, 3-[3-(3,4-Difluoro-benzyl)-3H-imidazo[4,5-b]pyridin-2-yl]-N-{(S)-1-[4-((R)-3-methyl-piperazin-1-yl)-phenyl]-ethyl}-propionamide], for which the IC50 worked out at 0.015 µM.
Next, `Cc1cnc2c(c1)nc(CCC(=O)N[C@@H](C)c1ccc(N[C@H]3CCNC3)cc1)n2Cc1ccc(OC(F)(F)F)cc1` [Example 189, 3-[6-Methyl-3-(4-trifluoromethoxy-benzyl)-3H-imidazo[4,5-b]pyridin-2-yl]-N-{(S)-1-[4-((S)-pyrrolidin-3-ylamino)-phenyl]-ethyl}-propionamide]: 0.016 µM; `C[C@H](NC(=O)CCc1nc2cccnc2n1Cc1ccc(F)c(F)c1)c1ccc(N2CC[C@@H](O)C2)cc1` [Example 190, 3-[3-(3,4-Difluoro-benzyl)-3H-imidazo[4,5-b]pyridin-2-yl]-N-{(S)-1-[4-((R)-3-hydroxy-pyrrolidin-1-yl)-phenyl]-ethyl}-propionamide]: 0.02 µM; `Cc1cnc2c(c1)nc(CCC(=O)N[C@@H](C)c1ccc(N3CCCNCC3)cc1)n2Cc1ccc(OC(F)(F)F)cc1` [Example 191, N-[(S)-1-(4-[1,4]Diazepan-1-yl-phenyl)-ethyl]-3-[6-methyl-3-(4-trifluoromethoxy-benzyl)-3H-imidazo[4,5-b]pyridin-2-yl]-propionamide]: 0.025 µM.
The value for `Cc1cnc2c(c1)nc(CCC(=O)N[C@@H](C)c1ccc(N3CCN[C@@H](C)C3)cc1)n2Cc1ccc(OC(F)(F)F)cc1` [Example 192, N-{(S)-1-[4-((S)-3-Methyl-piperazin-1-yl)-phenyl]-ethyl}-3-[6-methyl-3-(4-trifluoromethoxy-benzyl)-3H-imidazo[4,5-b]pyridin-2-yl]-propionamide] was 0.056 µM; that for `C[C@H](NC(=O)CCc1nc2cccnc2n1Cc1ccc(F)c(F)c1)c1ccc(N2CCNCC2)cc1` [Example 193, 3-[3-(3,4-Difluoro-benzyl)-3H-imidazo[4,5-b]pyridin-2-yl]-N-[(S)-1-(4-piperazin-1-yl-phenyl)-ethyl]-propionamide] was 0.083 µM; that for `O=C(CCc1nc2cccnc2n1Cc1ccc(OC(F)(F)F)cc1)N[C@@H](C(=O)O)C1CCCCC1` [Example 194, (R)-cyclohexyl-{3-[3-(4-trifluoromethoxy-benzyl)-3H-imidazo[4,5-b]pyridin-2-yl]-propionylamino}-acetic Acid] was 0.001 µM.
Next, `O=C(CCc1nc2cccnc2n1Cc1ccc(OC(F)(F)F)cc1)N[C@H](Cc1ccccc1)C(=O)O` [Example 195, (R)-3-Phenyl-2-{3-[3-(4-trifluoromethoxy-benzyl)-3H-imidazo[4,5-b]pyridin-2-yl]-propionylamino}-propionic acid]: 0.001 µM.
Take `O=C(CCc1nc2cccnc2n1Cc1ccc(C(F)(F)F)cc1)N[C@H](Cc1ccccc1)C(=O)O` [Example 196, (R)-3-Phenyl-2-{3-[3-(4-trifluoromethyl-benzyl)-3H-imidazo[4,5-b]pyridin-2-yl]-propionylamino}-propionic acid]: the IC50 was 0.002 µM.
Turning to `O=C(CCc1nc2cccnc2n1Cc1ccc(OC(F)F)cc1)N[C@H](Cc1ccccc1)C(=O)O` [Example 197, (R)-2-{3-[3-(4-Difluoromethoxy-benzyl)-3H-imidazo[4,5-b]pyridin-2-yl]-propionylamino}-3-phenyl-propionic acid], the IC50 was determined as 0.005 µM.
Take `O=C(CCc1nc2cccnc2n1Cc1ccc(F)c(F)c1)N[C@H](Cc1ccccc1)C(=O)O` [Example 198, (R)-2-{3-[3-(3,4-Difluoro-benzyl)-3H-imidazo[4,5-b]pyridin-2-yl]-propionylamino}-3-phenyl-propionic acid]: the IC50 came to 0.037 µM.
Next, `O=C(CCc1nc2cccnc2n1Cc1ccc(OC(F)(F)F)cc1)N[C@@H](Cc1ccccc1)C(=O)O` [Example 199, (S)-3-Phenyl-2-{3-[3-(4-trifluoromethoxy-benzyl)-3H-imidazo[4,5-b]pyridin-2-yl]-propionylamino}-propionic acid]: 0.071 µM; `O=C(CCc1nc2cccnc2n1Cc1ccc(OC(F)(F)F)cc1)N[C@@H](Cc1ccc(O)cc1)C(=O)O` [Example 200, (S)-3-(4-Hydroxy-phenyl)-2-{3-[3-(4-trifluoromethoxy-benzyl)-3H-imidazo[4,5-b]pyridin-2-yl]-propionylamino}-propionic acid]: 0.471 µM; `C[C@@H](c1ccc(F)cc1)n1c(CCC(=O)N[C@H](Cc2ccccc2)C(=O)O)nc2cccnc21` [Example 201, (R)-2-(3-{3-[(S)-1-(4-Fluoro-phenyl)-ethyl]-3H-imidazo[4,5-b]pyridin-2-yl}-propionylamino)-3-phenyl-propionic acid]: 0.598 µM.
Turning to `O=C(CCc1nc2cccnc2n1Cc1cccs1)N[C@H](Cc1ccccc1)C(=O)O` [Example 202, (R)-3-Phenyl-2-[3-(3-thiophen-2-ylmethyl-3H-imidazo[4,5-b]pyridin-2-yl)-propionylamino]-propionic acid], the IC50 is 0.819 µM.
Next, `O=C(CCc1nc2cccnc2n1Cc1ccc(OC(F)(F)F)cc1)N[C@@H](CO)Cc1ccccc1` [Example 203, N—((R)-1-Hydroxymethyl-2-phenyl-ethyl)-3-[3-(4-trifluoromethoxy-benzyl)-3H-imidazo[4,5-b]pyridin-2-yl]-propionamide]: 0.002 µM; `O=C(CCc1nc2cccnc2n1Cc1ccc(OC(F)(F)F)cc1)N[C@H](CO)Cc1ccccc1` [Example 204, N-((S)-1-Hydroxymethyl-2-phenyl-ethyl)-3-[3-(4-trifluoromethoxy-benzyl)-3H-imidazo[4,5-b]pyridin-2-yl]-propionamide]: 0.089 µM.
